Reference: publication PMC12592420, “A mismatch in enzyme-redox partnerships underlies divergent cytochrome P450 activities between human hepatocytes and microsomes” (Communications Biology, 2025)
Where “and” joins values, the source holds several entries; their conditions need not be identical. Identical values can stand only once.

Columns and labels:
rat hepatocytes = assay: Free fraction in rat hepatocytes as surrogate for HH, equilibrium dialysis; assay type: in vitro ADME; settings: fraction unbound, measured or estimated by in silico models of Fuinc
[1] = CLint in NADH-supplemented human liver microsomes; settings: for microsomal CLint at 1 µM / CLint scaled at 1 µM: human
Method: (§1) Calculation and scaling of CLint,u was done using the equation below and 45 mg of microsomal protein per gram of liver. HLMCLint,u=ln2/x1/t1/2(min)xmLincubation/mgmicrosomalproteinx45mgmicrosomalprotein/gliverx21gliver/kg/Fuinc

human hepatocytes (HH) = assay: in vitro; settings: for HH_CLint: single determination; for HH_CLint / HH_scaled_CLint,u: Fig. 4a
Method: (§2) Cryopreserved HH prepared from a mixed-gender pool of twenty donors (product X008000, lot EEO, BIOIVT), ten-donors (product S01205, lot MTJ, BIOIVT), ten donors (product S01205 lot LYB, BIOIVT) were utilised in the experiments. Cryopreserved HH were rapidly thawed in a water bath set at 37 °C and added to Leibovitz media that had been pre-warmed in the water bath. The suspension of cells was mixed gently and centrifuged at 40 × g for 4 min at room temperature. Excess media was removed, and the cells were re-suspended in 5 mL of fresh Leibovitz media. The cells were counted using an automated cell counter (Cellometer).

[2] = CLint in NADPH-supplemented human liver microsomes; settings: for microsomal CLint at 1 µM / CLint scaled at 1 µM: human; for HLM/HH (ratio of scaled CLint,u): NADPH-HLM average over HH average
Method: as §1

[3] = Free fraction in HLM incubation, equilibrium dialysis; assay type: in vitro ADME, human; settings: fraction unbound, measured or estimated by in silico models of Fuinc
[4] = LogD pH 7.4, octanol/phosphate buffer; settings: for LogD pH 7.4: at least one determination; for logD: octanol/phosphate buffer, pH 7.4
Caco-2 cells = assay: Intrinsic permeability in Caco-2 cells with efflux inhibited; settings: intrinsic (passive) permeability, at least one determination
in vitro [5] = settings: human, hepatocytes
Method: as §2

CYP1A2-Cytb5R = target: T1, CYP1A2-Cytb5R (Homo sapiens, UniProt P05177); assay: Turnover by non-canonical recombinant CYP1A2-Cytb5R; assay type: in vitro ADME; settings: noncanonical CYP1A2-Cytb5R
T1 construct: purchased BioIVT (custom synthesis) CE00001 (CYP1A2), batch CPD034-1A2-30; host or cells: bactosomes
T1 sequence (P05177 1-516): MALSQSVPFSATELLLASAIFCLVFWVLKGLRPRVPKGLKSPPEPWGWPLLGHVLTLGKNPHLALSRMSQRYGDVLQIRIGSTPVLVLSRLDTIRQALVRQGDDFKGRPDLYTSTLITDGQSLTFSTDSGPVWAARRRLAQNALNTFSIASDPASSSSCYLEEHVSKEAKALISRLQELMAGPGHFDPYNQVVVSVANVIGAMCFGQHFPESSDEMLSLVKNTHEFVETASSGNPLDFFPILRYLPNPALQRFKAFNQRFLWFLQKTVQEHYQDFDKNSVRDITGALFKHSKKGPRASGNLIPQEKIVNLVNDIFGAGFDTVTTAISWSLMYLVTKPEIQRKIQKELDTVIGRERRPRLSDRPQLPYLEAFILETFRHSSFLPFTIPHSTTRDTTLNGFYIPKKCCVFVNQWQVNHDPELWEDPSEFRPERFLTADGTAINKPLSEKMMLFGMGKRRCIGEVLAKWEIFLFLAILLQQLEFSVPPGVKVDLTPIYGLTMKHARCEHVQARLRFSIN
Text: As commercial recombinant human CYPs co-express the individual CYP and reductase with an option to include cytochrome b5. A custom synthesis co-expressing CYP3A4 or CYP1A2 and Cytb5R plus cytochrome b5 was, therefore, ordered from BioIVT and the bactosomes were compared with canonical CYP-POR enzymes plus cytochrome b5.

[6] = Intrinsic permeability in Caco-2 cells with efflux inhibited; settings: human, Caco-2
Cytb5R = Cytb5R for cofactor; cited from earlier work
POR = POR for cofactor; cited from earlier work
in vitro [7] = settings: human, Caco-2
[8] = 1 µM, single determination, Fig. 4a,d
[9] = HH, individual determinations 1-3, Fig. 1
[10] = Scaled HH CLint,u average, HH, average, Fig. 1
[11] = Scaled HH CLint,u, HH, individual determinations 1-3, Fig. 1
[12] = NADPH-HLM, individual determinations 1-3, Fig. 1
[13] = human liver microsomes + NADPH, pH 7.4, Scaled HLM CLint,u, NADPH-HLM, individual determinations 1-3, Fig. 1
[14] = human liver microsomes, pH 7.4, Scaled HLM CLint,u average, NADPH-HLM, average, Fig. 1
[15] = microsomes, pH 7.4, NADPH_HLM_scaled_CLint,u, Fig. 4a,d

For AZ23, the fu_ratHH (rat hepatocytes) was 0.577, the “HLM_NADH CLint” value [1, 8] was 6.34 µL/min/mg and the “NADH_HLM_scaled_CLint,u” value ([1]; Fig. 4a,d) was 10.2767 mL/min/kg. The HH_CLint (human hepatocytes (HH); 1 µM) was 3.309 uL/min/106 cells, the “HH_scaled_CLint,u” value (human hepatocytes (HH)) was 14.4518 mL/min/kg and the “HLM_NADPH CLint” value [2, 8] was 56.607 µL/min/mg. For the same molecule, the “NADPH_HLM_scaled_CLint,u” value ([2]; Fig. 4a,d) was 91.7558 mL/min/kg, the fu_HLM [3] was 0.583 and the “LogD pH 7.4” value [4] was 3.08. For the same molecule, the “Caco-2 Papp” value (Caco-2 cells) was 66.417 10-6 cm/s.
With `CCOc1ccc(NC(C)=O)cc1` [Phenacetin] the fu_ratHH (rat hepatocytes) was 0.955, the microsomal CLint at 1 µM ([1]; human liver microsomes + NADH, pH 7.4) was 5.68 µL/min/mg and the CLint scaled at 1 µM ([1]; human liver microsomes, pH 7.4) was 5.66 mL/min/kg. The hepatocyte CLint (in vitro [5]; both) was 7.38 µL/min/1e6 cells, the CLint scaled (in vitro [5]; HH_scaled_CLint,u, Fig. 4a) was 19.5 mL/min/kg and the microsomal CLint at 1 µM ([2]; human liver microsomes + NADPH, pH 7.4) was 24.5 µL/min/mg. The CLint scaled at 1 µM ([2]; human liver microsomes, pH 7.4, NADPH_HLM_scaled_CLint,u, Fig. 4a,d) was 24.4 mL/min/kg, the “turnover (metabolite formation or disappearance of parent)” value (CYP1A2-Cytb5R) was “no detectable turnover” and the fu_HLM [3] was 0.948. For the same molecule, the logD [4] was 1.48 and the Papp at 2 h, 10 µM [6] was 76.1 ×10⁻⁶ cm/s.
With `C[C@]12C=CC(=O)C=C1CC[C@@H]1[C@@H]2[C@@H](O)C[C@@]2(C)[C@H]1CC[C@]2(O)C(=O)CO` [Prednisolone] the “Scaled HH CLint,u” value (human hepatocytes (HH); [9]) was 12.4648 mL/min/kg and 14.0629 mL/min/kg, the CLint scaled (in vitro [5]; [10]) was 13.7 mL/min/kg and the CLint scaled (in vitro [5]; [11]) was 14.7 mL/min/kg. For the same molecule, the “HLM/HH (ratio of scaled CLint,u)” value ([2]; Fig. 1) was 2.917, the “Scaled HLM CLint,u” value [2, 12] was 38.7639 mL/min/kg and the CLint scaled at 1 µM [2, 13] was 40.8 mL/min/kg. It also gave a CLint scaled at 1 µM [2, 14] of 40.1 mL/min/kg.
For `C[C@]12CC[C@H]3[C@@H](CCC4=CC(=O)CC[C@@]43C)[C@@H]1CC[C@@H]2O` [Testosterone], the “Scaled HH CLint,u” value (human hepatocytes (HH); [9]) was 1005.17 mL/min/kg and 1161.02 mL/min/kg, the CLint scaled (in vitro [5]; [10]) was 1320 mL/min/kg and the CLint scaled (in vitro [5]; [11]) was 1780 mL/min/kg. For the same molecule, the “Scaled HLM CLint,u” value [2, 12] was 250.062 mL/min/kg and 237.027 mL/min/kg, the CLint scaled at 1 µM ([2]; microsomes, pH 7.4, Scaled HLM CLint,u average, NADPH-HLM, average, Fig. 1) was 246 mL/min/kg and the CLint scaled at 1 µM ([2]; microsomes, pH 7.4, Scaled HLM CLint,u, NADPH-HLM, individual determinations 1-3, Fig. 1) was 251 mL/min/kg.
In the case of `NC(=O)C1=CN([C@@H]2O[C@H](COP(=O)(O)OP(=O)(O)OC[C@H]3O[C@@H](n4cnc5c(N)ncnc54)[C@H](O)[C@@H]3O)[C@@H](O)[C@H]2O)C=CC1` [NADH], the Km (Cytb5R) is listed as 6 µM and the Km (POR) is listed as 48000 µM.
For `C[C@]12CCC(=O)C=C1CC[C@@H]1[C@@H]2[C@@H](O)C[C@@]2(C)[C@H]1CC[C@]2(O)C(=O)CO` [hydrocortisone], the “Scaled HH CLint,u” value (human hepatocytes (HH); [9]) was 16.444 mL/min/kg and 19.1349 mL/min/kg, the CLint scaled (in vitro [5]; [10]) was 19.3 mL/min/kg and the CLint scaled (in vitro [5]; [11]) was 22.4 mL/min/kg. For the same molecule, the “HLM/HH (ratio of scaled CLint,u)” value ([2]; Fig. 1) was 2.834, the “Scaled HLM CLint,u” value [2, 12] was 57.5167 mL/min/kg and 51.9108 mL/min/kg and the CLint scaled at 1 µM [2, 13] was 54.9 mL/min/kg. For the same molecule, the CLint scaled at 1 µM [2, 14] was 54.8 mL/min/kg.
In the case of `CCN(C(=O)c1cc(F)ccc1Oc1nncnc1N1CCC2(C1)CN([C@H](CCCN(C)CCOC)C(C)C)C2)C(C)C` [Bleximenib], the fu_ratHH (rat hepatocytes) is reported as 0.794, the HH_CLint (human hepatocytes (HH); 1 µM) is reported as 1.166 uL/min/106 cells and the “HH_scaled_CLint,u” value (human hepatocytes (HH)) is reported as 3.701 mL/min/kg. For the same molecule, the “HLM_NADPH CLint” value [2, 8] was 34.3 µL/min/mg, the “NADPH_HLM_scaled_CLint,u” value ([2]; Fig. 4a,d) was 44.9563 mL/min/kg and the fu_HLM [3] was 0.721. For the same molecule, the “LogD pH 7.4” value [4] was 0.74 and the “Caco-2 Papp” value (Caco-2 cells) was 0.575 10-6 cm/s.
For `NC(=O)C1=CN([C@@H]2O[C@H](COP(=O)(O)OP(=O)(O)OC[C@H]3O[C@@H](n4cnc5c(N)ncnc54)[C@H](OP(=O)(O)O)[C@@H]3O)[C@@H](O)[C@H]2O)C=CC1` [NADPH], the Km (Cytb5R) is listed as 1000 µM and the Km (POR) is listed as 2 to 15 µM.
Work on `O=C(O)c1cc(-c2ccc(F)cc2F)ccc1O` [Diflunisal] yielded a fu_ratHH (rat hepatocytes) of 0.525, a CLint scaled at 1 µM ([1]; microsomes, pH 7.4) of 3.5 mL/min/kg and a microsomal CLint at 1 µM ([1]; microsomes, pH 7.4) of 3 µL/min/mg. For the same molecule, the hepatocyte CLint at 1 µM (in vitro [5]; both) was 4.29 µL/min/1e6 cells, the CLint scaled at 1 µM (in vitro [5]; HH_scaled_CLint,u) was 20.6 mL/min/kg and the microsomal CLint at 1 µM ([2]; microsomes, pH 7.4) was 5.28 µL/min/mg. The CLint scaled at 1 µM [2, 15] was 6.16 mL/min/kg, the fu_HLM [3] was 0.81 and the logD [4] was 0.574. It also gave a Papp at 2 h, 10 µM [6] of 129 ×10⁻⁶ cm/s.
Work on `O=C1Nc2ccc(Cl)cc2C(c2ccccc2Cl)=NC1O` (centres unmarked) [Lorazepam] yielded a fu_ratHH (rat hepatocytes) of 0.724, a Papp (in vitro [7]) of 67.2 ×10⁻⁶ cm/s and a microsomal CLint at 1 µM ([1]; microsomes, pH 7.4, HLM_NADH CLint, 1 µM, single determination, Fig. 4a,d) of 3 µL/min/mg. It also gave a CLint scaled at 1 µM ([1]; microsomes, pH 7.4, NADH_HLM_scaled_CLint,u, Fig. 4a,d) of 3.92 mL/min/kg, a hepatocyte CLint (in vitro [5]; both, HH_CLint, 1 µM, single determination, Fig. 4a) of 2.77 µL/min/1e6 cells and a CLint scaled (in vitro [5]; HH_scaled_CLint,u, Fig. 4a) of 9.63 mL/min/kg. It also gave a microsomal CLint at 1 µM ([2]; microsomes, pH 7.4, HLM_NADPH CLint, 1 µM, single determination, Fig. 4a,d) of 4.99 µL/min/mg, a CLint scaled at 1 µM [2, 15] of 6.51 mL/min/kg and a fu_HLM [3] of 0.724.
For `CCC1=C[C@@H]2CN(C1)Cc1c([nH]c3ccccc13)[C@@](C(=O)OC)(c1cc3c(cc1OC)N(C)[C@H]1[C@@](O)(C(=O)OC)[C@H](OC(C)=O)[C@]4(CC)C=CCN5CC[C@]31[C@@H]54)C2` [Vinorelbin], the “Scaled HH CLint,u” value (human hepatocytes (HH); human, hepatocytes, 1 µM) was 48.4191 mL/min/kg, the CLint scaled at 1 µM (in vitro [5]; Scaled HH CLint,u) was 38.9 mL/min/kg and the CLint scaled at 1 µM (in vitro [5]; Scaled HH CLint,u average) was 43.6 mL/min/kg. The “HLM/HH (ratio of scaled CLint,u)” value ([2]; Fig. 1) was 13.7107, the “Scaled HLM CLint,u” value [2, 12] was 640.935 mL/min/kg and 717.808 mL/min/kg and the CLint scaled at 1 µM [2, 13] was 436 mL/min/kg. It also gave a CLint scaled at 1 µM [2, 14] of 598 mL/min/kg.
With `C[C@]12C=CC(=O)C=C1CC[C@@H]1[C@@H]2C(=O)C[C@@]2(C)[C@H]1CC[C@]2(O)C(=O)CO` [Prednisone] the “Scaled HH CLint,u” value (human hepatocytes (HH); [9]) was 43.6458 mL/min/kg and 52.3108 mL/min/kg, the CLint scaled (in vitro [5]; [10]) was 56.3 mL/min/kg and the CLint scaled (in vitro [5]; [11]) was 72.8 mL/min/kg. For the same molecule, the “HLM/HH (ratio of scaled CLint,u)” value ([2]; Fig. 1) was 0.4866, the “Scaled HLM CLint,u” value [2, 12] was 26.9421 mL/min/kg and 25.4228 mL/min/kg and the CLint scaled at 1 µM [2, 13] was 29.8 mL/min/kg. The CLint scaled at 1 µM [2, 14] was 27.4 mL/min/kg.
